Measured values: patent US11998610B2, “Conjugates and methods of using the same” (Flagship Pioneering Innovations V, Inc., priority 2018, dated 2024)
Non-standard residues stand in square brackets, D forms with d. Residues, ends and D or L forms follow the SMILES beside them. *: point of attachment. Butyryl = CCCC(=O)*

Columns and labels:
E. coli BL21(DE3) = test: Cell-based assay with ClbP with LCMS, ClbP negative strain; details: 10 μM compound, 37° C., 20 h
Description: (§1) This example is representative of the methods described in Example 97. ClbP was tested for its ability to activate compounds. […] Each of these three strains was struck out onto an appropriate solid media such as LB agar or BHI agar. The bacteria were then grown aerobically overnight at 37° C.
(§2) A single colony was isolated from the plate and inoculated into 10 mL LB. The liquid cultures were grown overnight aerobically at 37° C. with rocking on a nutator.
(§3) The saturated E. coli cultures were transferred into a biosafety cabinet. 5 μL of each culture was inoculated into fresh LB broth (200 μL total, 1:40 (v/v) dilution of the overnight culture), and the tested compound was added to a final concentration of 10 μM. To establish the native stability of the compound in media alone, the compound was also added to uninoculated media at a final concentration of 10 μM. Each compound was tested in duplicate with each strain or the media-alone incubation. The plate was sealed and incubated aerobically on a nutator at 37° C. for 20 h.
(§4) After 20 h, the reactions were stopped by addition of 200 μL acetonitrile. The contents of each well were mixed, and then the plate was centrifuged (4,000 rpm, 10 min). The plate was diluted serially to a final dilution of 1:100 first with Acetonitrile (10× dilution) and then with (4:1) Mobile Phase A-20 mM ammonium formate+water:Mobile Phase B-Isopropanol:Methanol:Water (4:4:2)+20 mM ammonium formate (10× dilution).
(§5) The amount of each remaining parent compound in each incubation was quantified by LC-MS analysis, with multiple-reaction monitoring targeting transitions specific to each parent compound.
(§6) The amount of compound present in the media-alone condition was normalized to 100%. The amount of parent compound present in the reaction with the ClbP-encoding E. coli (E. coli CFT073 ATCC 700928 and/or E. coli Nissle 1917) was compared to the amount present in the media-alone and expressed as a percent. Likewise, the amount of parent compound present in the reaction with the negative control E. coli BL21(DE3) was compared to the amount present in the media-alone and expressed as a percent.
(§7) In an ideal case, the amount of residual starting material in the reaction(s) with ClbP-encoding E. coli was <25% of the amount in the E. coli BL21(DE3) and media-alone conditions. In an acceptable case, the amount of residual starting material in the reaction(s) with ClbP-encoding E. coli was 25-75% of the amount in the E. coli BL21(DE3) and media-alone conditions. In a non-preferred case, the amount of residual starting material in the reaction(s) with ClbP-encoding E. coli was >75% of the amount in the E. coli BL21(DE3) and media-alone conditions.

[1] = In vitro Colonic Material Stability Assay; assay type: in vitro ADME; details: for Assay 3 (% Remaining at 24 h): colonic material slurry, anaerobic, 1 or 10 μM
Description: Assay 3 In vitro Colonic Material Stability Assay. This assay was used to assess the stability of an acylated active agent in a large intestine. All experiments were performed in an anaerobic chamber containing 90% nitrogen, 5% hydrogen and 5% carbon dioxide. Colonic material was resuspended as a slurry (15% w/v final concentration) in pre-reduced, anaerobically sterilized dilution blanks (Anaerobe Systems AS-908). The colonic material was then inoculated into 96 well plates containing YCFAC media (Anaerobe Systems AS-680) or other suitable media (6.7 μL slurry into 1 mL total media). Compounds or groups of compounds were added to each individual well to reach a final analyte concentration of 1 or 10 μM, and the material was mixed by pipetting. Sample was removed after set timepoints (0, 120, 240, 480, 1440, 2880 minutes after initiation of the assay), quenched with acetonitrile containing internal standard, and analyzed by LC/MS.

[2] = Stability of conjugates in Simulated Gastric Fluid (SGF); assay type: in vitro ADME; details: simulated gastric fluid pH 1.6 with pepsin, 1 μM, 37° C.
Description: Assay 1. Stability of conjugates in Simulated Gastric Fluid (SGF). This assay was used to assess the stability of a conjugate in a stomach. Medium was prepared by dissolving 2 g of sodium chloride in 0.6 L in ultrapure water (MilliQ®, Millipore Sigma, Darmstadt, Germany). The pH was adjusted to 1.6 with 1N hydrochloric acid, and the volume was then adjusted to 1 L with purified water. 60 mg FaSSIF powder (Biorelevant™, London, UK) were dissolved in 500 mL buffer (above). Pepsin was added (0.1 mg/mL) (Millipore Sigma, Darmstadt, Germany), and the solution was stirred. The resulting SGF media were used fresh for each experiment. Test compounds were dissolved in DMSO stock to 1 mM. An aliquot of the DMSO stock solution was removed and diluted in the SGF Media in 15 mL falcon tubes to generate a total compound concentration of 1 μM. A 1 mL aliquot was immediately removed and diluted once with 1 volume of acetonitrile for T0 timepoint. The mixture was sealed and mixed at 37° C. in an incubator. Aliquots (1 mL) were removed at regular intervals and immediately quenched by the addition of 1 volume of acetonitrile. The resulting samples were analyzed by LC/MS to determine degradation rates in SGF.

[3] = test system: E. coli CFT073 ATCC 700928 and/or E. coli Nissle 1917; test: Cell-based assay with ClbP with LCMS, ClbP positive strain; details: ClbP-encoding E. coli, 10 μM compound, 37° C., 20 h
Description: as §1, §2, §3, §4, §5, §6, §7

[4] = Stability of conjugates in Simulated Intestinal Fluid (SIF); assay type: in vitro ADME; details: simulated intestinal fluid pH 6.7 with pancreatin, 1 μM, 37° C.
Description: Assay 2. Stability of conjugates in Simulated Intestinal Fluid (SIF). This assay was used to assess the stability of a conjugate in a small intestine. Phosphate buffer was prepared by dissolving 0.42 g of sodium hydroxide pellets and 3.95 g of monobasic sodium phosphate monohydrate and 6.19 g of sodium chloride in ultrapure water (MilliQ®, Millipore Sigma, Darmstadt, Germany). The pH was adjusted to 6.7 using aq. HCl and aq. NaOH, as necessary, and the solution was diluted with ultrapure water to produce 1 L of the pH 6.7 buffer. 112 mg FaSSIF powder (Biorelevant™, London, UK) was dissolved in 50 mL of the pH 6.7 buffer. 2 to 3 mL of the resulting solution were then added to 500 mg pancreatin (Millipore Sigma, Darmstadt, Germany). The resulting mixture was agitated by finger tapping the vessel containing the mixture until milky suspension formed. At this time, the remainder of the 50 mL FaSSiF/pH 6.7 buffer solution was added. The resulting suspension was flipped upside down 10 times to produce SIF, which was used fresh. Test compounds were dissolved in DMSO stock to 1 mM. An aliquot of the DMSO stock solution was removed and diluted in the SIF media in 15 mL falcon tubes to produce a mixture with a tested compound concentration of 1 μM. A 1 mL aliquot was immediately removed and diluted once with 1 volume of acetonitrile for T0 timepoint. The mixture was sealed and agitated at 37° C. in an incubator. Aliquots (1 mL) were removed at regular intervals and immediately quenched by the addition of 1 volume of acetonitrile. The resulting samples were analyzed by LC/MS to determine degradation rates

| SMILES | % Remaining in ClbP Negative Relative to Media-Only (E. coli BL21(DE3)) | Assay 3 (% Remaining at 24 h) [1] | Assay 1 (SGF) (% Remaining @ 1 hours) [2] | % Remaining in ClbP Positve Relative to Media-Only [3] | Assay 2 (SIF) (% @ Remaining 4 hours) [4] | Selective delivery to the colon (conclusion from Table 2) ([1]; from SGF, SIF and colonic material stability) |
| --- | --- | --- | --- | --- | --- | --- |
| CCCC(=O)N[C@H](CC(N)=O)C(=O)N[C@@H](C)CCC(=O)Oc1ccccc1 [Example 25, Phenyl (S)-4-((R)-4-amino-2-butyramido-4-oxobutanamido)pentanoate] | − (>75% compound remaining in the 20 μM WT ClbP reaction relative to the no-enzyme control) | B (25-75% of the tested compound remaining) | C (>75% of the tested compound remaining) | + (between 25-75% compound remaining in the 20 μM WT ClbP reaction relative to the no-enzyme control) |  |  |
| CCCCCCOC(=O)N[C@H](CC(N)=O)C(=O)N[C@@H](C)C(=O)OC [Example 52, Methyl ((hexyloxy)carbonyl)-D-asparaginyl-L-alaninate] | ++ (<25% compound remaining in the 20 μM WT ClbP reaction relative to the control) | B (25-75% of the tested compound remaining) |  | ++ (<25% compound remaining in the 20 μM WT ClbP reaction relative to the control) |  |  |
| CCCCCCCCCCCCCC(=O)N[C@H](CC(N)=O)C(=O)NCCC(C)(C)C(=O)OC [Example 34, Methyl (R)-4-(4-amino-4-oxo-2-tetradecanamidobutanamido)-2,2-dimethylbutanoate] | − (>75% compound remaining in the 20 μM WT ClbP reaction relative to the no-enzyme control) | C (>75% of the tested compound remaining) | C (>75% of the tested compound remaining) | + (between 25-75% compound remaining in the 20 μM WT ClbP reaction relative to the no-enzyme control) |  |  |
| CCCCCCCCCCCCOC(=O)N[C@H](CC(N)=O)C(=O)N[C@@H](C)C(=O)OC [Example 59, Methyl ((dodecyloxy)carbonyl)-D-asparaginyl-L-alaninate] | ++ (<25% compound remaining in the 20 μM WT ClbP reaction relative to the control) | C (>75% of the tested compound remaining) |  | ++ (<25% compound remaining in the 20 μM WT ClbP reaction relative to the control) |  |  |
| CCCCCCCCCCCCNC(=O)N[C@H](CC(N)=O)C(=O)N[C@@H](C)C(=O)OC [Example 60, Methyl (dodecylcarbamoyl)-D-asparaginyl-L-alaninate] | + (between 25-75% compound remaining in the 20 μM WT ClbP reaction relative to the no-enzyme control) | C (>75% of the tested compound remaining) |  | + (between 25-75% compound remaining in the 20 μM WT ClbP reaction relative to the no-enzyme control) |  |  |
| COC(=O)[C@H](C)NC(=O)[C@@H](CC(N)=O)NC(=O)c1cn(C2CC2)c2cc(N3CCNCC3)c(F)cc2c1=O [Example 19, Methyl (1-cyclopropyl-6-fluoro-4-oxo-7-(piperazin-1-yl)-1,4-dihydroquinoline-3-carbonyl)-D-asparaginyl-L-alaninate] | − (>75% compound remaining in the 20 μM WT ClbP reaction relative to the no-enzyme control) | A (<25% of the tested compound remaining) |  | + (between 25-75% compound remaining in the 20 μM WT ClbP reaction relative to the no-enzyme control) |  |  |
| CCCC(=O)N[C@H](CC(N)=O)C(=O)N[C@@H](C)C(=O)OC [Example 12, Methyl butyryl-D-asparaginyl-L-alaninate] (Butyryl-[dN]-Ala-OMe) | + (between 25-75% compound remaining in the 20 μM WT ClbP reaction relative to the no-enzyme control) | A (<25% of the tested compound remaining) |  |  | C (>75% of the tested compound remaining) | can be selectively delivered to the colon |
| CCCCCCCC(=O)N[C@H](CC(N)=O)C(=O)N[C@@H](C)CNC(=O)OC [Example 45, Methyl ((S)-2-((R)-4-amino-2-octanamido-4-oxobutanamido)propyl)carbamate] | − (>75% compound remaining in the 20 μM WT ClbP reaction relative to the no-enzyme control) | B (25-75% of the tested compound remaining) |  | + (between 25-75% compound remaining in the 20 μM WT ClbP reaction relative to the no-enzyme control) |  |  |
| CCCCCCCC(=O)N[C@H](CC(N)=O)C(=O)N[C@@H](C)CCC(=O)OC [Example 42, Methyl (S)-4-((R)-4-amino-2-octanamido-4-oxobutanamido)pentanoate] | − (>75% compound remaining in the 20 μM WT ClbP reaction relative to the no-enzyme control) | C (>75% of the tested compound remaining) |  | − (>75% compound remaining in the 20 μM WT ClbP reaction relative to the no-enzyme control) |  |  |
